The record followed here is US20250115569A1, “SULFONAMIDE COMPOUNDS FOR THE TREATMENT OF NEUROLOGICAL CONDITIONS” (LARIO THERAPEUTICS LIMITED, priority 2021, published 2025).

Molecules are shown by their SMILES.

In the first assay the target is T1, Cav2.3 (Homo sapiens, UniProt Q15878). The experiment in a line: Human Cav2.3 channel calcium-influx assay. Format: cell-based. Conditions: Fluo8 fluorescence, HEK-293 T-Rex/Kir2.1/Cav2.3e cells, without pluronic acid, read-out: Cav2.3 (pIC50) (converted). Put shortly: (§1)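 HEK-293 T-Rex/Kir2.1 cells with doxycycline (0.2 μg/mL)-inducible Cav2.3e plus Cavβ4-α2δ1, loaded with Fluo8 NW in 0 mM K+ Tyrode's. Compounds (8 points, top 30 μM, half-log, 0.3% final DMSO, n=4) preincubated 3 min at RT, then depolarized with 20 mM KCl/2 mM CaCl2 (final); fluorescence read 130 s.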
T1 sequence (Q15878 whole entry, looked up): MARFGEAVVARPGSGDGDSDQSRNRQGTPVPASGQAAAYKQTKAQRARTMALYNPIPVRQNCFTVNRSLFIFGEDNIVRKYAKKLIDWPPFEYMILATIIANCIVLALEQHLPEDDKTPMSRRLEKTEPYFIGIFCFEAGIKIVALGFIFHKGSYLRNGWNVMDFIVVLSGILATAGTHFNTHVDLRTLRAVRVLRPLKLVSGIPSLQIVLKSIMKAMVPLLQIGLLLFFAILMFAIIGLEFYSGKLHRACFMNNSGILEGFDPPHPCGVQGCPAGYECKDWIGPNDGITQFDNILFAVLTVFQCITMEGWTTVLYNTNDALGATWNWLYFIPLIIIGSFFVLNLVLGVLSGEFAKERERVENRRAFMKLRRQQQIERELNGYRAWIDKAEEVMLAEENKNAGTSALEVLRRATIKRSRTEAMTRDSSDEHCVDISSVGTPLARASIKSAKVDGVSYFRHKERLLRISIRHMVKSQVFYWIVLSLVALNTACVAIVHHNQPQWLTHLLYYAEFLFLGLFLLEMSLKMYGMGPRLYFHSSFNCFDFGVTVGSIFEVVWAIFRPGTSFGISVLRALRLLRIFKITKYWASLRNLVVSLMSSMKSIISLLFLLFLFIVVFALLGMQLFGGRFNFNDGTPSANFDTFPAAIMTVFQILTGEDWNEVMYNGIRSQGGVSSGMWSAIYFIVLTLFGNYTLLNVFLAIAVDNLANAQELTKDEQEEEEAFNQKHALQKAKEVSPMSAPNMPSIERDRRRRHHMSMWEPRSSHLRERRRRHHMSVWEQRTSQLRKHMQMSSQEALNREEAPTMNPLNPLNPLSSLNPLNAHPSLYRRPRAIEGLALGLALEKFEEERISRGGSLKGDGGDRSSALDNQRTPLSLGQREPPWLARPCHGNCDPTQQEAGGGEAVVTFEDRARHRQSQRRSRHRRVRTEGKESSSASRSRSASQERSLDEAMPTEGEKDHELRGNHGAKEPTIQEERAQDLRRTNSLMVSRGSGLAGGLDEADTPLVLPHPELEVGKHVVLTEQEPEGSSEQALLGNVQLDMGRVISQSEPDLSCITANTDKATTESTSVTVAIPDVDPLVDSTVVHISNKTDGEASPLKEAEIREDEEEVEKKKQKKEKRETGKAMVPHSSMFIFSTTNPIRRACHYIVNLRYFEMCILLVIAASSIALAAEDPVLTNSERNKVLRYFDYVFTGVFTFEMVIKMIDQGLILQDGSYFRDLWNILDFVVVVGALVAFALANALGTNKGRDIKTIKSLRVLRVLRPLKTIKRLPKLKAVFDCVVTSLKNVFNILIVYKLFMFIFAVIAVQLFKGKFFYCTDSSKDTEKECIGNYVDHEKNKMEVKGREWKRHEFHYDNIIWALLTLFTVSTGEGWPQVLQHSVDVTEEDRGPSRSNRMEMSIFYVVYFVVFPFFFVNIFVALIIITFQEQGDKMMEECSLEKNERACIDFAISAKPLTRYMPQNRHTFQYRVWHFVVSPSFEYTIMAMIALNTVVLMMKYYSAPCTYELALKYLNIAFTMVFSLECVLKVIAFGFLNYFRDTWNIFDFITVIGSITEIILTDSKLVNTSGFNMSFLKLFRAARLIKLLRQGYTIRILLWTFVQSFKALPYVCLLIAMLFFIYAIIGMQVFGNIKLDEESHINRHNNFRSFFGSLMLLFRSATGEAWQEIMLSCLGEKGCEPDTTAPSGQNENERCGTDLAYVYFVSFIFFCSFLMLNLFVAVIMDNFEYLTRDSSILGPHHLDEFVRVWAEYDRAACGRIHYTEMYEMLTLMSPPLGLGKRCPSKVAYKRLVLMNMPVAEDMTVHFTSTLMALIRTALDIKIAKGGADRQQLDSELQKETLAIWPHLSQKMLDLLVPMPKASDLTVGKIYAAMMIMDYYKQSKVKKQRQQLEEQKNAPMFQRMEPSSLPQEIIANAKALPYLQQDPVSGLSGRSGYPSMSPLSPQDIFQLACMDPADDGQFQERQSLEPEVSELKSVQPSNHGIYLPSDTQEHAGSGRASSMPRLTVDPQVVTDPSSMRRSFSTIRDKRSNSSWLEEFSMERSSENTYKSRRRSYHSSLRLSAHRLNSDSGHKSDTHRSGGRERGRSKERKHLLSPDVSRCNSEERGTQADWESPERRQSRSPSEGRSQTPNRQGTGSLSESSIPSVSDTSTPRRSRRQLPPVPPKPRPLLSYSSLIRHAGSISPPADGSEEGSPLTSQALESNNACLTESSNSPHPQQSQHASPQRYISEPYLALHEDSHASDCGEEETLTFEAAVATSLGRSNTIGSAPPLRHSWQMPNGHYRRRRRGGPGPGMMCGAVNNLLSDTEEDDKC
On to `COc1ccc([C@@H](N(C)S(=O)(=O)c2ccc3nccn3c2)C(F)(F)F)cc1` [Example 203, (R)—N-methyl-N-(2,2,2-trifluoro-1-(4-methoxyphenyl)ethyl)imidazo[1,2-a]pyridine-6-sulfonamide], for which the IC50 was 794 nM. As for `CCN(C(c1ccc(F)cc1)C(F)(F)F)S(=O)(=O)c1cncc(C(N)=O)c1` (stereo in doubt) [Example 53, (R)-5-(N-ethyl-N-(2,2,2-trifluoro-1-(4-fluorophenyl)ethyl)sulfamoyl)nicotinamide], the IC50 was 1780 nM. `CCN([C@H](c1ccc(F)cc1)C(F)(F)F)S(=O)(=O)c1ccc2[nH]ncc2n1` [Example 188, (R)—N-ethyl-N-(2,2,2-trifluoro-1-(4-fluorophenyl)ethyl)-1H-pyrazolo[4,3-b]pyridine-5-sulfonamide]: the IC50 was 309 nM.

On to `CCN([C@H](c1ccc(F)cc1)C(F)(F)F)S(=O)(=O)c1ccc2nc[nH]c2c1` [Example 185, (R)—N-ethyl-N-(2,2,2-trifluoro-1-(4-fluorophenyl)ethyl)-1H-benzo[d]imidazole-6-sulfonamide], for which the IC50 is 155 nM.

For the compound `CCN([C@H](c1ccc(F)cc1)C(F)(F)F)S(=O)(=O)c1cnc2ccnn2c1` [Example 165, (R)—N-ethyl-N-(2,2,2-trifluoro-1-(4-fluorophenyl)ethyl)pyrazolo[1,5-a]pyrimidine-6-sulfonamide], the IC50 was 123 nM.

Turning to `CCN([C@@H](c1ccc(F)cc1)C(F)(F)F)S(=O)(=O)c1cnc(C#N)s1` [Example 83, (S)-2-Cyano-N-ethyl-N-(2,2,2-trifluoro-1-(4-fluorophenyl)ethyl)thiazole-5-sulfonamide], the IC50 was 3800 nM. On to `CCN([C@@H](c1ccc(F)cc1)C(F)(F)F)S(=O)(=O)c1cncc(F)c1` [Example 260, (S)—N-ethyl-5-fluoro-N-(2,2,2-trifluoro-1-(4-fluorophenyl)ethyl)pyridine-3-sulfonamide], for which the IC50 was 3550 nM. For `CCN([C@H](c1ccc(F)cc1)C(F)(F)F)S(=O)(=O)c1cccc2[nH]ncc12` [Example 182, (R)—N-ethyl-N-(2,2,2-trifluoro-1-(4-fluorophenyl)ethyl)-1H-indazole-4-sulfonamide], the IC50 is 288 nM. `CCN(C(c1ccc(F)cc1)C(F)(F)F)S(=O)(=O)c1nccs1` (centres unmarked) [Example 81, N-ethyl-N-(2,2,2-trifluoro-1-(4-fluorophenyl)ethyl)thiazole-2-sulfonamide]: the IC50 was 955 nM. For the compound `CCN([C@H](c1ccc(F)cc1)C(F)(F)F)S(=O)(=O)c1cc2ncccn2n1` [Example 148, (R)—N-ethyl-N-(2,2,2-trifluoro-1-(4-fluorophenyl)ethyl)pyrazolo[1,5-a]pyrimidine-2-sulfonamide], the IC50 is 692 nM.

Take `COc1cc(S(=O)(=O)N(C)[C@H](c2ccc(Cl)cc2)C(F)(F)F)c(OC)nn1` [Example 228, (R)—N-(1-(4-chlorophenyl)-2,2,2-trifluoroethyl)-3,6-dimethoxy-N-methylpyridazine-4-sulfonamide]: the IC50 was 891 nM.

As for `N#Cc1cncc(S(=O)(=O)N(CCF)[C@@H](c2ccc(F)cc2)C(F)(F)F)c1` [Example 65, (S)-5-Cyano-N-(2-fluoroethyl)-N-(2,2,2-trifluoro-1-(4-fluorophenyl)ethyl)pyridine-3-sulfonamide], the IC50 is 3800 nM. As to `COc1ccc([C@@H](N(C)S(=O)(=O)c2cn3ccncc3n2)C(F)(F)F)cc1` [Example 196, (R)—N-methyl-N-(2,2,2-trifluoro-1-(4-methoxyphenyl)ethyl)imidazo[1,2-a]pyrazine-2-sulfonamide], the IC50 is 9330 nM. Still for that read-out and setting: the value for `CCN([C@@H](c1ccc(F)cc1)C(F)(F)F)S(=O)(=O)c1cccc(C)n1` [Example 32, (S)—N-ethyl-6-methyl-N-(2,2,2-trifluoro-1-(4-fluorophenyl)ethyl)pyridine-2-sulfonamide] was 3800 nM; that for `CCN(C(c1ccc(F)cc1)C(F)(F)F)S(=O)(=O)c1cnc(C#N)s1` (centres unmarked) [Example 82, 2-Cyano-N-ethyl-N-(2,2,2-trifluoro-1-(4-fluorophenyl)ethyl)thiazole-5-sulfonamide] was 912 nM; that for `CCN([C@H](c1ccc(F)cc1)C(F)(F)F)S(=O)(=O)c1cnccn1` [Example 265, (R)—N-ethyl-N-(2,2,2-trifluoro-1-(4-fluorophenyl)ethyl)pyrazine-2-sulfonamide] was 39.8 nM. Turning to `CCN(C(c1ccc(F)cc1)C(F)(F)F)S(=O)(=O)c1cnnc(OC)c1` (centres unmarked) [Example 121, N-ethyl-6-methoxy-N-(2,2,2-trifluoro-1-(4-fluorophenyl)ethyl)pyridazine-4-sulfonamide], the IC50 is 191 nM. Consider `CN(C(c1ccc(F)cc1)C(F)(F)F)S(=O)(=O)c1ccc(F)s1` (centres unmarked) [Example 17, 5-fluoro-N-methyl-N-(2,2,2-trifluoro-1-(4-fluorophenyl)ethyl)thiophene-2-sulfonamide], for which the IC50 is 3630 nM. Take `CN(C(c1ccc(F)cc1)C(F)(F)F)S(=O)(=O)c1ccc(Cl)s1` (centres unmarked) [Example 1, 5-chloro-N-methyl-N-(2,2,2-trifluoro-1-(4-fluorophenyl)ethyl)thiophene-2-sulfonamide]: the IC50 is 8910 nM. Turning to `CN([C@H](c1ccc(OC(F)(F)F)cc1)C(F)(F)F)S(=O)(=O)c1cncc(C#N)c1` [Example 241, (R)-5-cyano-N-methyl-N-(2,2,2-trifluoro-1-(4-(trifluoromethoxy)phenyl)ethyl)pyridine-3-sulfonamide], the IC50 is 105 nM.

As to `CCN([C@H](c1ccc(F)cc1)C(F)(F)F)S(=O)(=O)c1cnc2ncsc2c1` [Example 151, (R)—N-ethyl-N-(2,2,2-trifluoro-1-(4-fluorophenyl)ethyl)thiazolo[4,5-b]pyridine-6-sulfonamide], the IC50 was 170 nM. As for `CCN([C@@H](c1ccc(OC)cc1)C(F)(F)F)S(=O)(=O)C1CCOCC1` [Example 126, (S)—N-ethyl-N-(2,2,2-trifluoro-1-(4-methoxyphenyl)ethyl)tetrahydro-2H-pyran-4-sulfonamide], the IC50 was 30200 nM. The same measure, in the same setting: the value for `CCN([C@H](c1ccc(F)cc1)C(F)(F)F)S(=O)(=O)c1cc2cc[nH]c2cn1` [Example 181, (R)—N-ethyl-N-(2,2,2-trifluoro-1-(4-fluorophenyl)ethyl)-1H-pyrrolo[2,3-c]pyridine-5-sulfonamide] was 537 nM. For the compound `CCN([C@H](c1ccc(F)cc1)C(F)(F)F)S(=O)(=O)c1ccc2ncn(C)c2c1` [Example 164, (R)—N-ethyl-1-methyl-N-(2,2,2-trifluoro-1-(4-fluorophenyl)ethyl)-1H-benzo[d]imidazole-6-sulfonamide], the IC50 is 174 nM. Turning to `CCN([C@H](c1ccc(F)cc1)C(F)(F)F)S(=O)(=O)c1ccc2nc(C)cn2n1` [Example 180, (R)—N-ethyl-2-methyl-N-(2,2,2-trifluoro-1-(4-fluorophenyl)ethyl)imidazo[1,2-b]pyridazine-6-sulfonamide], the IC50 is 447 nM.

A further assay has as its system Human Cav2.3 channel. The experiment in a line: Human Cav2.3 channel calcium-influx assay. Conditions: Fluo8 fluorescence, HEK-293 T-Rex/Kir2.1/Cav2.3e cells, without pluronic acid. Type of assay: cell-based. The essentials:
as §1
Consider `CCN([C@H](c1ccc(F)cc1)C(F)(F)F)S(=O)(=O)c1cncc(N2CCOCC2)c1` [Example 96, (R)—N-ethyl-5-morpholino-N-(2,2,2-trifluoro-1-(4-fluorophenyl)ethyl)pyridine-3-sulfonamide], for which the “Cav2.3 (pIC50)” value came out at 6.95. Still for that read-out and setting: the value for `CCN([C@H](c1ccc(F)cc1)C(F)(F)F)S(=O)(=O)c1cnc(C)nc1` [Example 77, (R)—N-ethyl-2-methyl-N-(2,2,2-trifluoro-1-(4-fluorophenyl)ethyl)pyrimidine-5-sulfonamide] was 7.01; that for `CCN([C@H](c1ccc(F)cc1)C(F)(F)F)S(=O)(=O)c1ccn2ccnc2c1` [Example 136, (R)—N-ethyl-N-(2,2,2-trifluoro-1-(4-fluorophenyl)ethyl)imidazo[1,2-a]pyridine-7-sulfonamide] was 7.50.

Another assay addresses T1, Cav2.3. The experiment in a line: Whole-cell patch clamp assay (QPatch) in HEK-293 T-Rex/Kir2.1/Cav2.3e-β4-α2δ1 cells. Format: cell-based. The following applies: QPatch 16X, room temperature, mean ± S.E, read-out: Cav2.3 (pIC50) (converted). The procedure: HEK-293 T-Rex/Kir2.1/Cav2.3e-β4-α2δ1 cells were seeded 96 hours before experiment and doxycycline at 0.2 μg/mL was added 24 hours before experiment. Just before the experiments cells were washed twice with D-PBS w/o Ca^2+/Mg^2+ and gently detached from the flask with Detachin. Cells were then re-suspended in the suspension solution (25 mL EX-CELL ACF CHO medium; 0.25 mL of 100× Penicillin/Streptomycin) and placed on the Automated Patch-clamp platform (QPatch 16X).
Standard whole-cell voltage clamp experiments were performed at room temperature using the single hole technology and the following intracellular and extracellular solutions (ICS and ECS, respectively) were used. ICS (mM): CsF 60, CsCl 50, NaCl 10, EGTA 20, BAPTA 5, HEPES 10, NaGTP 0.3, MgATP 5 (pH 7.2; ECS (mM): NMDG-Cl 120, BaCl2 20, HEPES 10, EGTA 7 (pH 7.4). After establishment of the seal and the passage in the whole-cell configuration, the Cav2.3 dependent current was evoked by challenging the cells with the following voltage protocol: the plasma membrane was held at −80 mV then a 50 ms-long depolarizing pulse at 0 mV, followed by a 50 ms-long hyperpolarizing pulse at −100 mV were applied and finally the plasma membrane was held back to −80 mV. This voltage protocol was applied every 10 seconds. Cav2.3 dependent current was first measured in control condition (vehicle, 0.1% DMSO), in the presence of increasing concentration of the compound under investigation and finally SNX 482 was added to fully block any R-type Cav2.3 dependent current.
For data collection, the Sophion proprietary software was used while the analysis was performed off-line using Excel and GraphPad Prism. The inward current (Area Under Curve) measured during each depolarizing pulse was normalized to cell membrane capacitance (Cm) to obtain the average inward current density in each condition (control, compound under investigation and SNX 482). Then, the inhibitory effect of the compound under investigation was evaluated as % of the remaining inward current, normalized to the internal control. […] All data were expressed as mean±S.E
(The patch-clamp technique gives a direct electrical read-out from membranes.)
Consider `CCN([C@H](c1ccc(F)cc1)C(F)(F)F)S(=O)(=O)c1cncc(N2CCOCC2)c1` [Example 96, (R)—N-ethyl-5-morpholino-N-(2,2,2-trifluoro-1-(4-fluorophenyl)ethyl)pyridine-3-sulfonamide], for which the IC50 was 67.6 nM. The same measure, in the same setting: the figure for `CCN([C@H](c1ccc(F)cc1)C(F)(F)F)S(=O)(=O)c1cnc(C)nc1` [Example 77, (R)—N-ethyl-2-methyl-N-(2,2,2-trifluoro-1-(4-fluorophenyl)ethyl)pyrimidine-5-sulfonamide] is 562 nM. For the compound `CCN([C@H](c1ccc(F)cc1)C(F)(F)F)S(=O)(=O)c1ccn2ccnc2c1` [Example 136, (R)—N-ethyl-N-(2,2,2-trifluoro-1-(4-fluorophenyl)ethyl)imidazo[1,2-a]pyridine-7-sulfonamide], the IC50 is 64.6 nM.

With `CCN([C@H](c1ccc(F)cc1)C(F)(F)F)S(=O)(=O)c1cncc(F)c1` (stereo in doubt) [Example 219, N-ethyl-5-fluoro-N-(2,2,2-trifluoro-1-(4-fluorophenyl)ethyl)pyridine-3-sulfonamide], the IC50 is 42.7 nM.
